Source: patent publication US20180099967A1, “FUSED TRICYCLIC HETEROCYCLIC COMPOUNDS AS HIV INTEGRASE INHIBITORS” (MERCK SHARP & DOHME CORP., priority 2015, published 2018)
Like-named read-outs stand apart in the source and are kept apart here.

System: HIV-1
Test: microbe, parasite or virus in culture
Type: cell-based, HIV-1 (H9IIIB or NL4-3 virus)
Experimental: HIV-1 replication was monitored using MT4-gag-GFP clone D3 (hereafter designate MT4-GFP), which are MT-4 cells modified to harbor a GFP reporter gene, the expression of which is dependent on the HIV-1 expressed proteins tat and rev. Productive infection of an MT4-GFP cell with HIV-1 results in GFP expression approximately 24 h post-infection.
MT4-GFP cells were maintained at 37° C./5% CO2/90% relative humidity in RPMI 1640 supplemented with 10% fetal bovine serum, 100 U/ml penicillin/streptomycin, and 400 μg/ml G418 to maintain the reporter gene. For infections, MT4-GFP cells were placed in the same medium lacking G418 and infected overnight with H9IIIB or NL4-3 virus at an approximate multiplicity of infection of 0.01 in the same incubation conditions. Cells were then washed and resuspended in either RPMI 1640 containing no serum at 1.6×10^5 cells/mL (serum free conditions), 10% normal human serum at 1.6×10^5 cells/mL (10% NHS conditions) or in 100% normal human serum at 2×10^5 cells/mL (100% NHS conditions). Compound plates were prepared by dispensing compounds taken up in DMSO into wells of 384 well poly D lysine-coated plates (0.2 μl/well) using an ECHO acoustic dispenser. Each compound was tested in a 10 point serial 3-fold dilution (typical final concentrations: 4.2 μM-0.21 nM). Controls included no inhibitor (DMSO only) and a combination of three antiviral agents (efavirenz, indinavir, and the integrase strand transfer inhibitor L-002254051 at final concentrations of 4 μM each). Cells were added (50 μL/well) to compound plates and the infected cells were maintained at 37° C./5% CO2/90% relative humidity.
Infected cells were quantified at two time points, ˜48 h and ˜72 h post-infection, by counting the number of green cells in each well using an Acumen eX3 scanner. […] Inhibition of R0 is calculated for each well, and IC50 value was determined using non-linear 4-parameter curve fitting.

[1] = read-out: WILD TYPE CELL ASSAY Viking IP (0% NHS)
[2] = read-out: WILD TYPE CELL ASSAY Viking IP (100% NHS)
[3] = Human immunodeficiency virus 1, read-out: WILD TYPE CELL ASSAY Viking IP (0% NHS) (nM)
[4] = Human immunodeficiency virus 1, read-out: WILD TYPE CELL ASSAY Viking IP (100% NHS) (nM)

SMILES	IC50 [1]	IC50 [2]	IC50 [3]	IC50 [4]
CCN1C[C@H]2CC(N3CCCC3)c3c(C(=O)NCc4ccc(F)cc4F)c(=O)c(O)c(n32)C1=O (single isomer, unassigned) [Compound 36]	6 nM	1190 nM	–	–
CCN1C[C@H]2C[C@@H](NS(C)(=O)=O)c3c(C(=O)NCc4ccc(F)cc4F)c(=O)c(O)c(n32)C1=O [Compound 44]	2 nM	19 nM	–	–
CCNC1CC2CN(CCOC)C(=O)c3c(O)c(=O)c(C(=O)NCc4ccc(F)cc4F)c1n32 (single isomer, unassigned) [Compound 65]	–	42 nM	12 nM	–
CCN1C[C@H]2C[C@H](NCc3ccccc3)c3c(C(=O)NCc4ccc(F)cc4F)c(=O)c(O)c(n32)C1=O [Compound 25]	–	–	28 nM	224 nM
CCN1C[C@@H]2C[C@@H](NS(C)(=O)=O)c3c(C(=O)NCc4ccc(F)cc4F)c(=O)c(O)c(n32)C1=O [Compound 47]	–	–	1 nM	10 nM
CCN[C@H]1C[C@@H]2CN(CC)C(=O)c3c(O)c(=O)c(C(=O)NCc4c(F)cc(F)cc4F)c1n32 [Compound 13]	–	–	7 nM	4020 nM
CCN[C@@H]1C[C@@H]2CN(CC)C(=O)c3c(O)c(=O)c(C(=O)NCc4ccc(F)cc4F)c1n32 [Compound 12]	–	–	10 nM	32 nM
CCN1C[C@H]2C[C@@H](NCc3ccccc3)c3c(C(=O)NCc4ccc(F)cc4F)c(=O)c(O)c(n32)C1=O [Compound 26]	–	–	32 nM	108 nM
CCCN[C@@H]1C[C@@H]2CN(CC)C(=O)c3c(O)c(=O)c(C(=O)NCc4ccc(F)cc4F)c1n32 [Compound 22]	–	–	11 nM	34 nM
CCN1C[C@@H]2C[C@@H](N)c3c(C(=O)NCc4ccc(F)cc4F)c(=O)c(O)c(n32)C1=O [Compound 1]	2 nM	19 nM	–	–
CCN1C[C@H]2C[C@H](NC(C)=O)c3c(C(=O)NCc4ccc(F)cc4F)c(=O)c(O)c(n32)C1=O (single isomer, unassigned) [Compound 54]	–	–	6 nM	38 nM
CCN1C[C@@H]2C[C@H](NC(C)=O)c3c(C(=O)NCc4ccc(F)cc4F)c(=O)c(O)c(n32)C1=O [Compound 57]	–	–	24 nM	135 nM
CCN1C[C@@H]2C[C@H](N)c3c(C(=O)NCc4ccc(F)cc4F)c(=O)c(O)c(n32)C1=O [Compound 2]	12 nM	374 nM	–	–
CCN1C[C@@H]2CC(N3CCCC3)c3c(C(=O)NCc4ccc(F)cc4F)c(=O)c(O)c(n32)C1=O (single isomer, unassigned) [Compound 33]	9 nM	32 nM	–	–
CCN1C[C@@H]2C[C@@H](N(C)C)c3c(C(=O)NCc4cccc(Cl)c4F)c(=O)c(O)c(n32)C1=O [Compound 38]	–	–	1 nM	12 nM
CCNC1CC2CN(CCOC)C(=O)c3c(O)c(=O)c(C(=O)NCc4ccc(F)cc4F)c1n32 (single isomer, unassigned) [Compound 66]	12 nM	180 nM	–	–
CCN1C[C@H]2C[C@@H](NCC3CC3)c3c(C(=O)NCc4ccc(F)cc4F)c(=O)c(O)c(n32)C1=O [Compound 24]	–	–	20 nM	37 nM
